Results from paper PMC8003975 (Cancers, 2021).

Experiments:
[1] = set-up: method as in PMID 28441771, PMID 29231907, PMID 28587113; conditions: preclinical and clinical studies; cited from earlier work
Cal27 and JHU029 cells = assay: HNC cell cytotoxicity assay of other bitter melon compounds (Figure S1); type: cell-based, human; conditions: 48 hr
Procedure: Cal27, JHU029, JHU022 and NOK were seeded in 96 well-plate (5000 cells/well) and cells were treated with different concentration of M-I for 48 h. There were untreated control and DMSO treated vehicle control group for comparison. Cytotoxicity assay was performed using Cell Counting Kit-8 (Dojindo Molecular Technology, Rockville, MD, USA) according to manufacturer instruction.
Supplementary Materials: Momordicine-I, a Bitter
Activity in Head and Neck Cancer Involving c-Met
Figure S1. Cal27 and JHU029 ells were treated with momordicine-I (M-I), momordicosideK (MK), karavilageninD (KD) at indicated doses for 48 hr and cytotoxicity assay was performed. Small bar indicates standard error.
Figure S2. Whole blot for Figure 2A. […]

[2] = literature-reported biology of the tentatively identified metabolite; no reference given; cited from earlier work

Compound | Reported Biology [2] | also measured
COc1cc2c(Oc3ccc(NC(=O)C4(C(=O)Nc5ccc(F)cc5)CC4)cc3F)ccnc2cc1OCCCN1CCOCC1 [Foretinib] |  | adverse side effects [1]: fatigue, hypertension, and gastrointestinal toxicities
CN1CCN(C2CCN(C(=O)Nc3cc(Oc4ccc(NC(=O)C5(C(=O)Nc6ccc(F)cc6)CC5)c(F)c4)ccn3)CC2)CC1 [Golvatinib] |  | adverse side effects [1]: supraventricular tachycardia, convulsion, and pulmonary embolism
C[C@H](C/C=C/C(C)(C)O)[C@H]1CC[C@@]2(C)[C@@H]3C=C[C@@]45OC(=O)[C@]3(CC[C@]12C)[C@@H]4CC[C@H](O)C5(C)C [KD, karavilagenin D] |  | amount required for ~40% cell death (Cal27 and JHU029 cells): > 50 µg/mL
CO[C@H]1C=C2[C@@H](CC[C@H](O[C@@H]3O[C@H](CO)[C@@H](O)[C@@H](O)[C@H]3O)C2(C)C)[C@]2(C)CC[C@]3(C)[C@@H]([C@H](C)C/C=C/C(C)(C)O)CC[C@@]3(C)[C@H]12 [Karaviloside III] | cytotoxic activity against Hep3B and HepG2 cell lines | 
C[C@H](C[C@@H](O)[C@H](O)C(C)(C)O)[C@H]1CC[C@@]2(C)[C@@H]3C=C[C@@]45OC[C@]3(CC[C@]12C)[C@@H]4CC[C@H](O[C@@H]1O[C@H](CO)[C@@H](O)[C@@H](O)[C@H]1O)C5(C)C [Karaviloside XI] | Antidiabetic | 
COC(C)(C)/C=C/C[C@@H](C)[C@H]1CC[C@@]2(C)[C@@H]3[C@@H](O[C@@H]4O[C@H](CO)[C@@H](O)[C@H](O)[C@H]4O)C=C4[C@@H](CC[C@H](O)C4(C)C)[C@]3(C=O)CC[C@]12C [MK, momordicoside K] |  | amount required for ~40% cell death (Cal27 and JHU029 cells): > 50 µg/mL
C[C@H](C/C=C/C(C)(C)O)[C@H]1CC[C@@]2(C)[C@@H]3[C@@H](O[C@@H]4O[C@H](CO)[C@@H](O)[C@H](O)[C@H]4O)C=C4[C@@H](CC[C@H](O)C4(C)C)[C@]3(C=O)CC[C@]12C [Momordicoside L] | Weak α-glucosidase inhibition | 
Sacranoside A | nitric oxide inhibitory effect | 
